Read-outs that look alike come from different tables or passages of the source.
What was measured:
[1] = tested on: 3D co-culture spheroids containing RPMI 8226 cells and mesenchymal stem cells (MSC) in a 5:1 ratio; assay: Antiproliferative assay in 3D co-culture spheroids (CellTiter-Glo 3D, 48 h); format: cell-based, human; settings: Homo sapiens, RPMI 8226 + MSC 5:1 spheroids, mean ± SD, n = 3
Procedure: The multiple myeloma human plasma cells RPMI 8226 were purchased from American Type Culture Collection (ATCC, Manassas, VA, USA) and cultured in RPMI 1640 medium (Gibco, Paisley, UK) supplemented with 50 µg/mL streptomycin sulfate, 50 U/mL penicillin G sodium salt (Gibco, Grand Island, NY, USA) and 10% fetal bovine serum (FBS) (Biowest, Nuaillé, France). […] Human MSC from the bone marrow were purchased from PromoCell and were cultured in Mesenchymal Stem Cell Growth Medium 2 (PromoCell, Heidelberg, Germany) supplemented with 100 μg/mL streptomycin sulfate and 100 U/mL penicillin G sodium salt.
RPMI 8226 cells and MSC were mixed in a 5:1 ratio. The cell mixture was centrifuged, and medium containing 20% collagen I (Gibco) adjusted to pH 7 was added to the cell pellet. Five μL drops were plated in each well of an ice-cold 96-well ultra-low attachment U-bottom plate (Corning, Kennebunk, MA, USA) and the plate was incubated for 30 min at 37 °C and 5% CO2 atmosphere. After the incubation, 200 μL of RPMI 1640 medium (Gibco) supplemented with 50 µg/mL streptomycin sulfate, 50 U/mL penicillin G sodium salt (Gibco) and 10% FBS (Biowest) was added to each well. The 3D spheroids were formed after 48 h.
RPMI 8226 and RPMI 8226/BTZ100 cells were seeded in 96-well plates (Costar, Kennebunk, MA, USA) at a density of 15,000 cells per well and directly treated for 72 h with the various compounds using increasing concentrations (0.31–2000 nM). […] Following the treatment, 100 μL of medium was carefully removed from each well and collagenase (1.5 μL of a 100 mg/mL solution, Sigma) was added. The plate was shaken at 37 °C for 10 min at 350 rpm. Then, 100 μL of CellTiter-Glo 3D reagent (Promega, Fitchburg, WI, USA) was added to each well. The plate was incubated for 5 min at 37 °C under agitation at 250 rpm, followed by 25 min at room temperature without agitation. Finally, the luminescence was measured using a Cytation 3 plate reader (BioTek). The percentage of cell proliferation and calculation of the IC50 value were determined as previously described. Each compound was tested in triplicate in three independent experiments.

[2] = Drug combination of Ent and BTZ, antiproliferative effect (Combenefit, CompuSyn); format: cell-based; settings: read-out: IC50 in drug combination experiment
Procedure: Combinations were evaluated using Combenefit data analysis.
Statistical analysis was performed in GraphPad Prism 9 (GraphPad) using one-way ANOVA for the proteasome inhibition assay. Combenefit (Cancer Research UK Cambridge Institute, Cambridge, UK) and CompuSyn software were used for drug combination analyses. The CI was calculated through the Chou-Talalay method using Compusyn. Data are expressed as mean ± standard deviation (SD).

[3] = tested on: RPMI 8226 cells; assay: Antiproliferative assay (XTT, 72 h); format: cell-based, human; settings: Homo sapiens; RPMI 8226 cells, 72 h, XTT, mean ± SD, n = 3
[4] = tested on: RPMI 8226/BTZ100 cells; assay: cells; format: cell-based, human; settings: for IC50: Homo sapiens, RPMI-8226, 72 h, read-out: IC50 Value Antiproliferative Activity RPMI 8226/BTZ100
[5] = tested on: HDAC; assay: HDAC inhibitory activity in RPMI 8226 cells (MAL substrate, UHPLC-MS); format: cell-based, human; settings: 10 µM, 8 h
Procedure: RPMI 8226 cells were seeded in 96-well plates (Costar) at a density of 15,000 cells per well in 25 µL of medium containing the HDAC substrate N-(4-methyl-7-aminocoumarinyl)-Nα-(t-butoxycarbonyl)-Nω-acetyllysineamide (21 µM, MAL, Sigma). The cells were directly treated with the compounds at 10 µM or with Ent (0.4–250 µM) for 8 h to obtain a final volume of 50 µL. […] Following the incubation, the reaction was stopped by adding 10 µL of 6X RIPA buffer, supplemented with protease inhibitor (Sigma). Then, 160 µL of cold acetonitrile were added and the plate was placed for 10 min at −80 °C. The plate was centrifuged at 5000× g for 10 min at 4 °C, and the supernatant was transferred into a UHPLC-adapted 96-well plate (Nunc 96-well plate conical bottom, ThermoFisher) and sealed. The substrate (MAL) and its deacetylated product (dMAL) were measured using a UHPLC-MS method as previously described. The percentage of HDAC inhibition is given by 100 − [(tested sample × 100/control sample)], and the dose-response curve of Ent was established.

[6] = target: T1, 26S proteasome (Homo sapiens, UniProt P28074); assay: Proteasome inhibitory activity (Suc-LLVY-amc) in RPMI 8226 cell lysate; format: biochemical; settings: 26S proteasome in RPMI 8226 cell lysate, 30 min preincubation, Suc-LLVY-amc 100 µM, mean ± SD, n = 3; read-out: IC50 Value PI Activity
T1 sequence (P28074 60-263): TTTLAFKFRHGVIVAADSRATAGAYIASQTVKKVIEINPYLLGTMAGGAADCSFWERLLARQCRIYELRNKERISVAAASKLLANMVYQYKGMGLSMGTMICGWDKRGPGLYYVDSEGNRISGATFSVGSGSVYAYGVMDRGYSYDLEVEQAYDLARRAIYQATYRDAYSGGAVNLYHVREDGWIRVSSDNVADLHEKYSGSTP
Procedure: RPMI 8226 cells (1 × 10^6 cells/mL) were collected, centrifuged, and washed twice with cold PBS (Gibco). The supernatant was discarded, and 200 μL of ice-cold lysis buffer (NP40 cell lysis buffer (Invitrogen, Eugene, OR, USA), supplemented with 1 mM PMSF (Sigma) and protease inhibitor cocktail (Sigma), was added to the pellet. Cells were kept on ice for 30 min and vortexed every 10 min. Samples were then centrifuged at 4 °C for 10 min at 16,000× g. Supernatant containing the proteins was collected. Protein quantification was performed using the Coomassie (Bradford) Protein Assay Kit (ThermoFisher, Waltham, MA, USA) following the manufacturer instructions. In each well of a 96-well black plate (ThermoFisher), 10 µg of proteins were mixed with assay buffer (50 mM Tris-HCl, pH 7.5, 40 mM KCl, 5 mM MgCl2, 0.5 mM ATP, 1 mM DTT, 0.5 mg/mL BSA) in 180 µL total volume. […] The plate was then incubated for 30 min at 37 °C. After incubation, the reaction was started by adding the fluorometric peptide substrate Suc-LLVY-amc (Bio-Techne, Minneapolis, MN, USA) at a final concentration of 100 µM, except for the blank wells. Following 1 h incubation at 37 °C in the dark, the fluorescence signal was red (excitation: 380 nm, emission: 440–460 nm) using a Cytation 3 plate reader (BioTek). The percentage of 26S proteasome activity was measured by comparing the fluorescence of the sample treated with the vehicle control wells and multiplied by 100. The IC50 value was calculated as mentioned above, and each compound was tested in triplicate in three independent experiments.

Compound: CC(C)C[C@H](NC(=O)[C@H](Cc1ccccc1)NC(=O)c1cnccn1)B(O)O [BTZ, bortezomib]
- IC50 [1]: 6.4 ± 1.6 nM
- IC50 [2]: 3.3 nM
- IC50 [3]: 2.1 ± 0.4 nM
- Increased resistance (RPMI 8226/BTZ100 vs. RPMI 8226) [4]: 116.8 fold
- IC50 [4]: 245 ± 11.1 nM

Compound: CC(C)C[C@H](NC(=O)[C@@H](Cc1ccccc1)NC(=O)c1cnc(C(=O)Nc2ccccc2N)cn1)B1OC2CC3CC(C3(C)C)[C@]2(C)O1 (stereo partly drawn) [Compound 3, N^2-(2-aminophenyl)-N^5-((2R)-1-(((1R)-3-methyl-1-((3aS)-3a,5,5-trimethylhexahydro-4,6-methanobenzo[d][1,3,2]dioxaborol-2-yl)butyl)amino)-1-oxo-3-phenylpropan-2-yl)pyrazine-2,5-dicarboxamide]
- IC50 [1]: 13.1 ± 6.9 nM
- Inhibition of HDAC activity [5]: 33%
- IC50 [3]: 9.5 ± 1.4 nM
- IC50 [6]: 27.2 ± 6.2 nM
- IC50 [4]: 158 ± 15.8 nM
- Increased resistance (RPMI 8226/BTZ100 vs. RPMI 8226) ([4]; ratio of IC50 in resistant vs. parental cells): 16.6 fold

Compound: CC(C)C[C@H](NC(=O)[C@@H](Cc1ccccc1)NC(=O)Cc1ccc(C(=O)Nc2ccc(F)cc2N)cc1)B1OC2CC3CC(C3(C)C)[C@@]2(C)O1 (stereo partly drawn) [Compound 7, N-(2-amino-4-fluorophenyl)-4-(2-(((2R)-1-(((1R)-3-methyl-1-((3aR)-3a,5,5-trimethyl-hexahydro-4,6-methanobenzo[d][1,3,2]dioxaborol-2-yl)butyl)amino)-1-oxo-3-phenylpropan-2-yl)amino)-2-oxoethyl)benzamide]
- IC50 [1]: 89.3 ± 13.6 nM
- Inhibition of HDAC activity [5]: 37%
- IC50 [3]: 31.4 ± 1.7 nM
- IC50 [6]: 7.2 ± 1.7 nM
- IC50 [4]: 831 ± 139 nM
